According to US4465674A, “Azahomoerythromycin D derivative and intermediates therefor” (Pfizer Inc., priority 1983, dated 1984):
In brackets after ≈: the same amount, converted by molar mass. Read-outs that look alike come from different tables or passages of the source.

Assays:
[1] = system: Strep. faec.; assay: in vitro MIC in BHI broth, Strep. faec.; type: cell-based
Description: (§1) Generally twelve 2 fold dilutions of the test compound are employed, with initial concentration of the test drug being in the range of 50 to 200 mcg./ml.
(§2) The susceptibility (MIC) of the test organism is accepted as the lowest concentration of compound capable of producing complete inhibition of growth as judged by the naked eye.

[2] = system: Ent. cloac.; assay: in vitro MIC in BHI broth, Ent. cloac.; type: cell-based; conditions: Ent. cloac. 009; BHI broth; read-out: MIC
Description: as §1, §2

[3] = system: Prov. strua.; assay: in vitro MIC in BHI broth, Prov. strua.; type: cell-based; conditions: Prov. strua. 013; BHI broth; read-out: MIC
Description: as §1, §2

[4] = system: Staph. epi; assay: in vitro MIC in BHI broth, Staph. epi; type: cell-based; conditions: Staph. epi 111; BHI broth; read-out: MIC
Description: as §1, §2

[5] = system: Kleb. oxy.; assay: in vitro MIC in BHI broth, Kleb. oxy.; type: cell-based; conditions: Kleb. oxy. 024; BHI broth; read-out: MIC
Description: as §1, §2

[6] = system: Staph. aur.; assay: in vitro MIC in BHI broth, Staph. aur.; type: cell-based
Description: as §1, §2

[7] = system: Serr. mar.; assay: in vitro MIC in BHI broth, Serr. mar.; type: cell-based; conditions: Serr. mar. 017; BHI broth; read-out: MIC
Description: as §1, §2

[8] = system: H. influ.; assay: in vitro MIC in BHI broth, H. influ.; type: cell-based
Description: as §1, §2

[9] = system: Past. mult.; assay: in vitro MIC in BHI broth, Past. mult.; type: cell-based; conditions: Past. mult. 001; BHI broth; read-out: MIC
Description: as §1, §2

[10] = system: Neiss. sic.; assay: in vitro MIC in BHI broth, Neiss. sic.; type: cell-based; conditions: Neiss. sic. 000; BHI broth; read-out: MIC
Description: as §1, §2

[11] = system: E. Coli; assay: in vitro MIC in BHI broth, E. Coli; type: cell-based; conditions: Escherichia coli
[12] = system: Strep. pyog.; assay: in vitro MIC in BHI broth, Strep. pyog.; type: cell-based; conditions: Strep. pyog. 203; BHI broth; read-out: MIC
Description: as §1, §2

[13] = system: Ent. aerog.; assay: in vitro MIC in BHI broth, Ent. aerog.; type: cell-based; conditions: Ent. aerog. 040; BHI broth; read-out: MIC
[14] = system: erythromycin A and D susceptible organisms and Gram negative microorganisms resistant to erythromycin A and D; assay: spectrum of antibacterial activity; type: cell-based
Description: as §1

[15] = system: Kleb. pn.; assay: in vitro MIC in BHI broth, Kleb. pn.; type: cell-based; conditions: BHI broth
[16] = serum levels after oral dosage (micro-biological bioassay) in mice; type: in vivo
Procedure: Additionally, compound (II) is tested in vivo by the well-known mouse protection test, or by a micro-biological (bioassay) determination of serum levels in a variety of mammals (e.g., mouse, rat, dog).

| Structure (SMILES) | MIC [2] | MIC [3] | MIC [4] | MIC [5] | MIC ([6]; Staph. aur. 005, read-out: MIC) | MIC ([6]; Staph. aur. 052, read-out: MIC) | MIC ([6]; Staph. aur. 400, read-out: MIC) | MIC [7] | MIC ([8]; H. influ. 036, read-out: MIC) | MIC ([8]; H. influ. 038, read-out: MIC) | MIC ([8]; H. influ. 042, read-out: MIC) | MIC ([8]; H. influ. 073, read-out: MIC) | MIC ([8]; H. influ. 078, read-out: MIC) | MIC ([8]; H. influ. 081, read-out: MIC) | MIC [9] | MIC [10] | MIC ([11]; E. Coli 129) | MIC ([11]; E. Coli 266) | MIC ([11]; E. Coli 470) | MIC [12] | also measured |
| --- | --- | --- | --- | --- | --- | --- | --- | --- | --- | --- | --- | --- | --- | --- | --- | --- | --- | --- | --- | --- | --- |
| CC[C@H]1OC(=O)[C@H](C)[C@@H](O[C@H]2C[C@@](C)(OC)[C@@H](O)[C@H](C)O2)[C@H](C)[C@@H](O[C@@H]2O[C@H](C)C[C@H](N(C)C)[C@H]2O)[C@](C)(O)C[C@@H](C)CN(C)[C@H](C)[C@@H](O)[C@]1(C)O [(3), 9-deoxo-9a-methyl-9a-aza-9a-homoerythromycin A] | 25 µg/mL (≈ 33.4 µM) | 50 µg/mL (≈ 66.8 µM) | 0.1 µg/mL (≈ 0.134 µM) | 25 µg/mL (≈ 33.4 µM) | 0.2 µg/mL (≈ 0.267 µM) | 0.39 µg/mL (≈ 0.521 µM) | 25 µg/mL (≈ 33.4 µM) | 50 µg/mL (≈ 66.8 µM) | 0.78 µg/mL (≈ 1.04 µM) | 0.78 µg/mL (≈ 1.04 µM) | 0.78 µg/mL (≈ 1.04 µM) | 0.78 µg/mL (≈ 1.04 µM) | 0.39 µg/mL (≈ 0.521 µM) | 0.78 µg/mL (≈ 1.04 µM) | 0.1 µg/mL (≈ 0.134 µM) | 0.39 µg/mL (≈ 0.521 µM) | 6.25 µg/mL (≈ 8.34 µM) | 6.25 µg/mL (≈ 8.34 µM) | 0.78 µg/mL (≈ 1.04 µM) | 0.025 µg/mL (≈ 0.0334 µM) | MIC [1]: 1.56 µg/mL (≈ 2.08 µM); MIC ([8]; H. influ. 051): 1.56 µg/mL (≈ 2.08 µM) |
| CC[C@H]1OC(=O)[C@H](C)[C@@H](O[C@H]2C[C@@](C)(O)[C@@H](O)[C@H](C)O2)[C@H](C)[C@@H](O[C@@H]2O[C@H](C)C[C@H](N(C)C)[C@H]2O)[C@](C)(O)C[C@@H](C)CN(C)[C@H](C)[C@@H](O)[C@H]1C [Compound (II), 9-deoxo-9a-methyl-9a-aza-9a-homoerythromycin D] | > 50 µg/mL | > 50 µg/mL | 0.39 µg/mL (≈ 0.542 µM) | 50 µg/mL (≈ 69.5 µM) | 0.39 µg/mL (≈ 0.542 µM) | 0.78 µg/mL (≈ 1.08 µM) | > 50 µg/mL | > 50 µg/mL | 3.12 µg/mL (≈ 4.34 µM) | 1.56 µg/mL (≈ 2.17 µM) | 3.12 µg/mL (≈ 4.34 µM) | 0.39 µg/mL (≈ 0.542 µM) | 0.78 µg/mL (≈ 1.08 µM) | 3.12 µg/mL (≈ 4.34 µM) | 0.2 µg/mL (≈ 0.278 µM) | 0.78 µg/mL (≈ 1.08 µM) | 12.5 µg/mL (≈ 17.4 µM) | 12.5 µg/mL (≈ 17.4 µM) | 0.39 µg/mL (≈ 0.542 µM) | 0.025 µg/mL (≈ 0.0348 µM) | MIC [13]: 50 µg/mL (≈ 69.5 µM); MIC ([8]; H. influ. 012, read-out: MIC): 3.12 µg/mL (≈ 4.34 µM); MIC ([8]; H. influ. 051, read-out: MIC): 3.12 µg/mL (≈ 4.34 µM); MIC ([11]; E. Coli 125): 25 µg/mL (≈ 34.8 µM); spectrum of antibacterial activity [14]: relatively broad spectrum of antibacterial activity which includes erythromycin A and D susceptible organisms and, in addition, many Gram negative microorganisms resistant to erythromycin A and D; MIC ([15]; Kleb. pn. 009, read-out: MIC): 50 µg/mL (≈ 69.5 µM); MIC ([15]; Kleb. pn. 031): 50 micrograms/ml.; absorption after oral dosage [16]: exceptionally well absorbed; serum levels [16]: exceptionally high and long lasting serum levels |
